In experiment [1] the target is APAO (N1-acetylpolyamine oxidase) (Homo sapiens, UniProt Q6QHF9). In words: luminol/HRP chemiluminescence assay of H2O2 with purified recombinant enzyme. The format is biochemical.
In the next experiment the target is SMO (spermine oxidase) (Homo sapiens, UniProt Q9NWM0). The experiment is described as above. In kind it is biochemical.
Chain of SMO (spermine oxidase) (Q9NWM0 whole entry): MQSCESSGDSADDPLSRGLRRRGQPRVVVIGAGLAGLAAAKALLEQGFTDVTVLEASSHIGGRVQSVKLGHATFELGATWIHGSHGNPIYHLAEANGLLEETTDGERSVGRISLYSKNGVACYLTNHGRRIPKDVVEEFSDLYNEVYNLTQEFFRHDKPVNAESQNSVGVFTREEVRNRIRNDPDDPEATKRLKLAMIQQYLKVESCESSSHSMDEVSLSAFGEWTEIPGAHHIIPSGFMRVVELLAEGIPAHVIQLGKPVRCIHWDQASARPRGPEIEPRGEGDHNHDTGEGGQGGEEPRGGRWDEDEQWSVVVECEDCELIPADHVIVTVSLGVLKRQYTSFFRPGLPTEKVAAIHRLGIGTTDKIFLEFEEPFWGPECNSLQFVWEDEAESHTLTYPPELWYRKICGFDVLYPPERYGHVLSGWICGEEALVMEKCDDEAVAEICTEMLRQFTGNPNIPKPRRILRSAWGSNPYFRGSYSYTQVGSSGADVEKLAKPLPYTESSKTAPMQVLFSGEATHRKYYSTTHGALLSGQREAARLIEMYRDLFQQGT

Chain of APAO (N1-acetylpolyamine oxidase) (Q6QHF9 whole entry): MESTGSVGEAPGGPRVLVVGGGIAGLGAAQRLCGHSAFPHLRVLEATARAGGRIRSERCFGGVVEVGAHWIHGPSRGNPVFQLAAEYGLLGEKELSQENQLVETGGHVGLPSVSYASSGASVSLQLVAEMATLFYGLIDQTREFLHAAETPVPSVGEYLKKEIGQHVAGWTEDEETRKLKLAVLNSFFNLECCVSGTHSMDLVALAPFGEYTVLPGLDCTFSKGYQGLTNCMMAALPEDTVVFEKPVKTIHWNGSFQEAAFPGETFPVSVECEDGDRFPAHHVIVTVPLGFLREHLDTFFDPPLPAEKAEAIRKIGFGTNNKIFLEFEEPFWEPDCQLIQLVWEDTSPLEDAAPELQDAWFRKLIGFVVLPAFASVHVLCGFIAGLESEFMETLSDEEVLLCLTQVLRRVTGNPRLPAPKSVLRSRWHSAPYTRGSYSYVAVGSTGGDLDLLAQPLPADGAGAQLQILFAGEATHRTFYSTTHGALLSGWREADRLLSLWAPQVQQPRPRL

Take `CN(C)CCCNCCCNC(=O)c1cccc2cccnc12` [SI-4650, N-(3-{[3-(dimethylamino)propyl]amino}propyl)-8-quinolinecarboxamide]: the IC50 in experiment [1] is 35.4 ± 0.26 µM; at SMO (spermine oxidase) it was 381.8 ± 0.17 µM.

In general, IC50 refers to the point on the concentration scale where inhibition reaches its midpoint.

Source of the values: article PMC6567099 (Journal of Enzyme Inhibition and Medicinal Chemistry, 2019).
